Earlier results in PubChem BioAssay AID1259409 (Chemical Carcinogenesis Research Information System (CCRIS), 2018).

Tested on: rodent chemically induced tumor inhibition, incidence and multiplicity
Assay: CCRIS tumor inhibitor studies
Details: 64091-91-4, Promoter: NONE USED

For `S=C=NCCc1ccccc1`, the “tumour outcome (control, treated, inhibition, significance)” value (Carcinogen: 4-(METHYLNITROSAMINO)-1-(3-PYRIDYL)-1-BUTANONE, Dose [Inhibitor]: 3 UMOL/G DIET BEGINNING 1 WK PRIOR TO FIRST CARCINOGEN DOSE (STUDY DURATION: 104 WK), Route [Inhibitor]: ORAL, Species: RAT, Strain/Sex: F344/MALE, Target Tissue: Type of Lesion: HEMATOPOIETIC SYSTEM: LEUKEMIA OR LYMPHOMA, Dose [Carcinogen]: 1.76 MG/KG 3/WK FOR 20 WK) is listed as 5/40 (13%), 3/40 (8%), 38%, not calculated, the “tumour outcome (control, treated, inhibition, significance)” value (Carcinogen: 4-(METHYLNITROSAMINO)-1-(3-PYRIDYL)-1-BUTANONE, Dose [Inhibitor]: 3 UMOL/G DIET BEGINNING 1 WK PRIOR TO FIRST CARCINOGEN DOSE (STUDY DURATION: 104 WK), Route [Inhibitor]: ORAL, Species: RAT, Strain/Sex: F344/MALE, Target Tissue: Type of Lesion: LUNG: ADENOMA OR CARCINOMA, Dose [Carcinogen]: 1.76 MG/KG 3/WK FOR 20 WK) is listed as 32/40 (80%), 17/40 (43%), 46%, p<0.05 and the “tumour outcome (control, treated, inhibition, significance)” value (Carcinogen: 4-(METHYLNITROSAMINO)-1-(3-PYRIDYL)-1-BUTANONE, Dose [Inhibitor]: 3 UMOL/G DIET BEGINNING 1 WK PRIOR TO FIRST CARCINOGEN DOSE (STUDY DURATION: 104 WK), Route [Inhibitor]: ORAL, Species: RAT, Strain/Sex: F344/MALE, Target Tissue: Type of Lesion: LUNG: ADENOMA OR HEPATOCELLULAR CARCINOMA, Dose [Carcinogen]: 1.76 MG/KG 3/WK FOR 20 WK) is listed as 15/40 (38%), 14/40 (35%), 8%, not calculated. The “tumour outcome (control, treated, inhibition, significance)” value (Carcinogen: 4-(METHYLNITROSAMINO)-1-(3-PYRIDYL)-1-BUTANONE, Dose [Inhibitor]: 3 UMOL/G DIET BEGINNING 1 WK PRIOR TO FIRST CARCINOGEN DOSE (STUDY DURATION: 104 WK), Route [Inhibitor]: ORAL, Species: RAT, Strain/Sex: F344/MALE, Target Tissue: Type of Lesion: MAMMARY GLAND: ADENOCARCINOMA OR FIBROADENOMA OR FIBROMA, Dose [Carcinogen]: 1.76 MG/KG 3/WK FOR 20 WK) was 5/40 (13%), 0/40 (0%), 100%, not calculated, the “tumour outcome (control, treated, inhibition, significance)” value (Carcinogen: 4-(METHYLNITROSAMINO)-1-(3-PYRIDYL)-1-BUTANONE, Dose [Inhibitor]: 3 UMOL/G DIET BEGINNING 1 WK PRIOR TO FIRST CARCINOGEN DOSE (STUDY DURATION: 104 WK), Route [Inhibitor]: ORAL, Species: RAT, Strain/Sex: F344/MALE, Target Tissue: Type of Lesion: NASAL CAVITY: SQUAMOUS CELL PAPILLOMA OR TRANSITIONAL-CELL PAPILLOMA OR POLYP OR SQUAMOUS CELL CARCINOMA, Dose [Carcinogen]: 1.76 MG/KG 3/WK FOR 20 WK) was 11/40 (28%), 7/40 (18%), 36%, not calculated and the “tumour outcome (control, treated, inhibition, significance)” value (Carcinogen: 4-(METHYLNITROSAMINO)-1-(3-PYRIDYL)-1-BUTANONE, Dose [Inhibitor]: 3 UMOL/G DIET BEGINNING 1 WK PRIOR TO FIRST CARCINOGEN DOSE (STUDY DURATION: 104 WK), Route [Inhibitor]: ORAL, Species: RAT, Strain/Sex: F344/MALE, Target Tissue: Type of Lesion: PANCREAS: EXOCRINE ADENOCARCINOMA OR EXOCRINE ADENOMA, Dose [Carcinogen]: 1.76 MG/KG 3/WK FOR 20 WK) was 1/40 (3%), 5/40 (13%), -333%, not calculated. The “tumour outcome (control, treated, inhibition, significance)” value (Carcinogen: 4-(METHYLNITROSAMINO)-1-(3-PYRIDYL)-1-BUTANONE, Dose [Inhibitor]: 3 UMOL/G DIET BEGINNING 1 WK PRIOR TO FIRST CARCINOGEN DOSE (STUDY DURATION: 104 WK), Route [Inhibitor]: ORAL, Species: RAT, Strain/Sex: F344/MALE, Target Tissue: Type of Lesion: PERITONEUM: MESOTHELIOMA, Dose [Carcinogen]: 1.76 MG/KG 3/WK FOR 20 WK) was 1/40 (3%), 2/40 (5%), -67%, not calculated, the “tumour outcome (control, treated, inhibition, significance)” value (Carcinogen: 4-(METHYLNITROSAMINO)-1-(3-PYRIDYL)-1-BUTANONE, Dose [Inhibitor]: 3 UMOL/G DIET BEGINNING 1 WK PRIOR TO FIRST CARCINOGEN DOSE (STUDY DURATION: 104 WK), Route [Inhibitor]: ORAL, Species: RAT, Strain/Sex: F344/MALE, Target Tissue: Type of Lesion: STOMACH: SARCOMA OR PAPILLOMA, Dose [Carcinogen]: 1.76 MG/KG 3/WK FOR 20 WK) was 5/40 (13%), 2/40 (5%), 62%, not calculated and the “tumour outcome (control, treated, inhibition, significance)” value (Carcinogen: 4-(METHYLNITROSAMINO)-1-(3-PYRIDYL)-1-BUTANONE, Dose [Inhibitor]: 3 UMOL/G DIET BEGINNING 1 WK PRIOR TO FIRST CARCINOGEN DOSE (STUDY DURATION: 104 WK), Route [Inhibitor]: ORAL, Species: RAT, Strain/Sex: F344/MALE, Target Tissue: Type of Lesion: TESTES: TUMOR, Dose [Carcinogen]: 1.76 MG/KG 3/WK FOR 20 WK) was 31/40 (78%), 31/40 (78%), 0%. For the same compound, the “tumour outcome (control, treated, inhibition, significance)” value (Carcinogen: 4-(METHYLNITROSAMINO)-1-(3-PYRIDYL)-1-BUTANONE, Dose [Inhibitor]: 3 UMOL/G DIET BEGINNING 1 WK PRIOR TO FIRST CARCINOGEN DOSE (STUDY DURATION: 104 WK), Route [Inhibitor]: ORAL, Species: RAT, Strain/Sex: F344/MALE, Target Tissue: Type of Lesion: THYROID: MALIGNANT TUMOR OR BENIGN TUMOR, Dose [Carcinogen]: 1.76 MG/KG 3/WK FOR 20 WK) was 1/40 (3%), 3/40 (8%), -166%, not calculated, the “tumour outcome (control, treated, inhibition, significance)” value (Carcinogen: 4-(METHYLNITROSAMINO)-1-(3-PYRIDYL)-1-BUTANONE, Dose [Inhibitor]: 5 UMOL/D FOR 4 CONSECUTIVE DAYS (STUDY DURATION: 16 WK), Route [Inhibitor]: GAVAGE, Species: MOUSE, Strain/Sex: STRAIN-A/FEMALE, Target Tissue: Type of Lesion: LUNG: ADENOMA, Dose [Carcinogen]: 10 UMOL ONCE 2 HR POST LAST AGENT DOSE) was 30/30 (100%), 18/20 (89%), 11%, not calculated and the “tumour outcome (control, treated, inhibition, significance)” value (Carcinogen: 4-(METHYLNITROSAMINO)-1-(3-PYRIDYL)-1-BUTANONE, Dose [Inhibitor]: 25 UMOL/D FOR 4 CONSECUTIVE DAYS (STUDY DURATION: 16 WK), Route [Inhibitor]: GAVAGE, Species: MOUSE, Strain/Sex: STRAIN-A/FEMALE, Target Tissue: Type of Lesion: LUNG: ADENOMA, Dose [Carcinogen]: 10 UMOL ONCE 2 HR POST LAST AGENT DOSE) was 30/30 (100%), 6/20 (30%), 70%, p<0.01. For the same compound, the “tumour outcome (control, treated, inhibition, significance)” value (Carcinogen: 4-(N-NITROSOMETHYLAMINO)-1-(3-PYRIDYL)-1-BUTANONE, Dose [Inhibitor]: 0, 3 UMOL/G DIET BEGINNING 1 WK PRIOR TO CARCINOGEN TREATMENT AND CONTINUING FOR 21 WK (STUDY DURATION: 104 WK), Route [Inhibitor]: ORAL, Species: RAT, Strain/Sex: F344/MALE, Target Tissue: Type of Lesion: LIVER: ADENOMA, Dose [Carcinogen]: 1.76 MG/KG 3/WK FOR 20 WK) was 12/40 (30%), 9/40 (23%), 23%, not calculated, the “tumour outcome (control, treated, inhibition, significance)” value (Carcinogen: 4-(N-NITROSOMETHYLAMINO)-1-(3-PYRIDYL)-1-BUTANONE, Dose [Inhibitor]: 0, 3 UMOL/G/DIET BEGINNING 1 WK PRIOR TO CARCINOGEN TREATMENT AND CONTINUING FOR 21 WK (STUDY DURATION: 104 WK), Route [Inhibitor]: ORAL, Species: RAT, Strain/Sex: F344/MALE, Target Tissue: Type of Lesion: LIVER: CARCINOMA, Dose [Carcinogen]: 1.76 MG/KG 3/WK FOR 20 WK) was 3/40 (8%), 5/40 (13%), -62%, not calculated and the “tumour outcome (control, treated, inhibition, significance)” value (Carcinogen: 4-(N-NITROSOMETHYLAMINO)-1-(3-PYRIDYL)-1-BUTANONE, Dose [Inhibitor]: 0, 3 UMOL/G/DIET BEGINNING 1 WK PRIOR TO CARCINOGEN TREATMENT AND CONTINUING FOR 21 WK (STUDY DURATION: 104 WK), Route [Inhibitor]: ORAL, Species: RAT, Strain/Sex: F344/MALE, Target Tissue: Type of Lesion: LUNG: ADENOMA, Dose [Carcinogen]: 1.76 MG/KG 3/WK FOR 20 WK) was 8/40 (20%), 5/40 (13%), 35%, not calculated. For the same compound, the “tumour outcome (control, treated, inhibition, significance)” value (Carcinogen: 4-(N-NITROSOMETHYLAMINO)-1-(3-PYRIDYL)-1-BUTANONE, Dose [Inhibitor]: 0, 3 UMOL/G/DIET BEGINNING 1 WK PRIOR TO CARCINOGEN TREATMENT AND CONTINUING FOR 21 WK (STUDY DURATION: 104 WK), Route [Inhibitor]: ORAL, Species: RAT, Strain/Sex: F344/MALE, Target Tissue: Type of Lesion: LUNG: CARCINOMA, Dose [Carcinogen]: 1.76 MG/KG 3/WK FOR 20 WK) was 24/40 (60%), 12/40 (30%), 50%, not calculated.
